pIC50: −log10 of the molar value.
What was measured:
[1] = biological target: T1, procaspase-3 (Homo sapiens (Human), UniProt P42574); test: In vitro activation of purified procaspase-3 (activation curves, Ac-DEVD-pNA); format: biochemical; conditions: for EC50: Table 3, read-out: EC50 (μM) for procaspase-3 activation; for Activity (direct activation of purified procaspase-3 in vitro): Table 2
Description: Activation curves. […] The plate was read every 2 minutes at 405 nm for 2 hours in a Spectra Max Plus 384 well plate reader. The slope of the linear portion for each well was determined and the fold increase in activation from non-treated control wells was calculated. […]

[2] = tested on: HL-60 cells; test: Cell death induction IC50 (MTS) in HL-60; format: cell-based, human; conditions: for IC50: Homo sapiens, HL-60, Table 3, read-out: IC50 (μM) for death induction in HL-60 cells
[3] = tested on: HL-60 cell line; test: IC50 of PAC-1 derivatives in HL-60 cell line (Table 5); format: cell-based; conditions: for Fold better than PAC-1: HL-60 IC50 relative to PAC-1; for pIC50: Homo sapiens, HL-60, Table 5
Text: The results are indicated in Table 5 (where L- and R-designations refer to structures shown in the AX and BX series above, respectively).

[4] = biological target: T1, procaspase-3; test: Western blot of in vitro procaspase-3 activation by DX compounds; format: biochemical; conditions: 50 micromolar compound, about 35 nanomolar procaspase-3, 8 hr
Description: Certain compounds were also tested for the ability to effect in vitro activation of procaspase-3.

[5] = tested on: HL-60 cells; test: Apoptosis induction assay in HL-60 cells, 72 hrs (Table 6); format: cell-based
Description: Compounds DX1-DX17 were tested using the HL-60 cell line for the ability to effect apoptosis, and IC50 values were determined. Activity levels of compounds from assays of 72 hrs duration with HL-60 cells are shown in Table 6 and along with structures in FIG. 12.

[6] = tested on: NCI-H226 lung cancer cell line; test: Cell death IC50 (MTS) in NCI-H226; format: cell-based; conditions: etoposide, 24 hours; read-out: IC50 for inducing death, NCI-H226
[7] = tested on: UACC-62 melanoma cell line; test: Cell death IC50 (MTS) in UACC-62; format: cell-based; conditions: etoposide, 24 hours; read-out: IC50 for inducing death, UACC-62
[8] = tested on: CRL-1872 melanoma cell line; test: Cell death IC50 (MTS) in CRL-1872; format: cell-based; conditions: etoposide, 24 hours; read-out: IC50 for inducing death, CRL-1872
[9] = tested on: B16-F10 melanoma cell line; test: Cell death IC50 (MTS) in B16-F10; format: cell-based; conditions: etoposide, 24 hours; read-out: IC50 for inducing death, B16-F10
[10] = tested on: Hs 578t breast cancer cell line; test: Cell death IC50 (MTS) in Hs 578t; format: cell-based; conditions: etoposide, 24 hours; read-out: IC50 for inducing death, Hs 578t
[11] = tested on: U-937; test: Cell death IC50 (MTS) in U-937; format: cell-based; conditions: etoposide, 24 hours; read-out: IC50 for inducing death, U-937
[12] = tested on: SK-N-SH; test: Cell death IC50 (MTS) in SK-N-SH; format: cell-based; conditions: etoposide, 24 hours; read-out: IC50 for inducing death, SK-N-SH
[13] = tested on: PC-12; test: Cell death IC50 (MTS) in PC-12; format: cell-based; conditions: etoposide, 24 hours; read-out: IC50 for inducing death, PC-12

T1 sequence (P42574 whole entry): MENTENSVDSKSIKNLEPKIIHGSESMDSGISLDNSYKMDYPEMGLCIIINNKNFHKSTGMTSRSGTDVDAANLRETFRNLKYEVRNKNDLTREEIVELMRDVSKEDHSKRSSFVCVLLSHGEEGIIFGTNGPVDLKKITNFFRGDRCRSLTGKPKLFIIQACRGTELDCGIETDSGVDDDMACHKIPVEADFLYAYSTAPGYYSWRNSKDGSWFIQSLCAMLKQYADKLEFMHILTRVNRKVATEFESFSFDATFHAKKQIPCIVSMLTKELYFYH

SMILES | EC50 [1] | IC50 [2] | Fold better than PAC-1 [3] | pIC50 [3] | also measured
O=C(CN1CCNCC1)N/N=C/c1ccccc1O | > 50 µM | > 100 µM |  |  | 
C/C=N/NC(=O)CN1CCN(Cc2ccccc2)CC1 | > 50 µM | > 100 µM |  |  | 
CCOC(=O)CN1CCN(Cc2ccccc2)CC1 | > 50 µM | > 100 µM |  |  | 
CCOC(=O)CN1CCNCC1 | > 50 µM | > 100 µM |  |  | 
c1ccc(CN2CCN(Cc3ccccc3)CC2)cc1 | > 50 µM | > 100 µM |  |  | 
c1ccc(CN2CCNCC2)cc1 [Compound 2] |  |  |  |  | Activity (direct activation of purified procaspase-3 in vitro) [1]: Inactive
NNC(=O)CN1CCN(Cc2ccccc2)CC1 [Compound 4] |  |  |  |  | Activity (direct activation of purified procaspase-3 in vitro) [1]: Inactive
CN1CCN(CC(=O)N/N=C/c2ccccc2O)CC1 [Compound 6] |  |  |  |  | Activity (direct activation of purified procaspase-3 in vitro) [1]: Inactive
O=C(CN1CCN(Cc2ccccc2)CC1)N/N=C/c1ccccc1 [Compound 7] |  |  |  |  | Activity (direct activation of purified procaspase-3 in vitro) [1]: Inactive
CC(C)(C)c1cc(/C=N/NC(=O)CN2CCN(Cc3ccccc3)CC2)c(O)c(C(C)(C)C)c1 [Compound L01R06] |  |  | 9.7-fold | 5.25 | 
C=CCc1cccc(/C=N/NC(=O)CN2CCN(Cc3ccc(C(C)(C)C)cc3)CC2)c1O [Compound L02R03] |  |  | 12.6-fold | 5.36 | 
CC(C)(C)c1ccc(CN2CCN(CC(=O)N/N=C/c3cc(C(C)(C)C)cc(C(C)(C)C)c3O)CC2)cc1 [Compound L02R06] |  |  | 8.4-fold | 5.19 | 
CC(C)(C)c1cc(/C=N/NC(=O)CN2CCN(Cc3ccc(CCc4ccccc4)cc3)CC2)c(O)c(C(C)(C)C)c1 [Compound L08R06] |  |  | 10.3-fold | 5.27 | 
C=CCc1cccc(/C=N/NC(=O)CN2CCN(Cc3ccc(OCc4ccccc4)c(OCc4ccccc4)c3)CC2)c1O [Compound L09R03] |  |  | 11.3-fold | 5.32 | 
CC(C)(C)c1cc(/C=N/NC(=O)CN2CCN(Cc3ccc(OCc4ccccc4)c(OCc4ccccc4)c3)CC2)c(O)c(C(C)(C)C)c1 [Compound L09R06] |  |  | 13.1-fold | 5.38 | 
O=C(CN1CCN(Cc2ccc(OCc3ccccc3)c(OCc3ccccc3)c2)CC1)N/N=C/c1c(O)ccc2ccccc12 [Compound L09R08] |  |  | 22.6-fold | 5.62 | 
C=CCc1cccc(/C=N/NC(=O)CN2CCC(Cc3ccccc3)CC2)c1O [DX11] |  |  |  |  | in vitro activation of procaspase-3 (Western blot) relative to control [4]: substantial activity levels; pIC50 [5]: 5.49
O=C(CN1CCN(Cc2ccccc2)CC1)N/N=C/c1ccccc1O [de-allyl PAC-1] |  |  |  |  | pIC50 ([5]; Homo sapiens): 5.06
O=C(CN1CCN(Cc2ccccc2)CC1)N/N=C/c1ccccc1 [drawing 26] | > 50 µM | > 100 µM |  |  | 
NNC(=O)CN1CCN(Cc2ccccc2)CC1 [drawing 29] | > 50 µM | > 100 µM |  |  | 
c1ccc(CN2CCNCC2)cc1 [drawing 33] | > 50 µM | > 100 µM |  |  | 
COc1cc([C@@H]2c3cc4c(cc3[C@@H](O[C@@H]3O[C@@H]5CO[C@@H](C)O[C@H]5[C@H](O)[C@H]3O)[C@H]3COC(=O)[C@H]23)OCO4)cc(OC)c1O [etoposide] |  |  |  |  | pIC50 [6]: < 4.30; pIC50 [7]: < 4.30; pIC50 [8]: < 4.30; pIC50 [9]: < 4.30; pIC50 [10]: < 4.30; pIC50 ([2]; etoposide, 24 hours, read-out: IC50 for inducing death, HL-60): > 6.00; pIC50 [11]: > 6.00; pIC50 [12]: > 6.00; pIC50 [13]: > 6.00

Source: US10166229B2, “Compounds and methods for the treatment of cancer” (The Board of Trustees of the University of Illinois, priority 2005, dated 2019)
